Where two headings read alike, the source gives them in different places. Some results are limits rather than exact numbers.

In test [1] the target is 5-HT2b (Homo sapiens, UniProt P41595). In words: Selectivity binding 5-HT2b.
The target of test [2] is T1, human 5-HT6 receptor (Homo sapiens, UniProt P50406).
T1 construct: expressed in transfected cells; host or cells: HEK293
In words: 5-HT6 binding assay ([3H]-LSD, SPA, membranes of transfected HEK293 cells). Conditions: at 50 nM, either/or statement of b82; read-out: % inhibition of [3H] LSD (general statement).

The target in test [3] is T2, κ (KOP) (Cavia porcellus, UniProt P41144).
T2 construct: Guinea-pig cerebellum; from tissue; host or cells: guinea-pig cerebellum
T2 sequence (P41144 whole entry): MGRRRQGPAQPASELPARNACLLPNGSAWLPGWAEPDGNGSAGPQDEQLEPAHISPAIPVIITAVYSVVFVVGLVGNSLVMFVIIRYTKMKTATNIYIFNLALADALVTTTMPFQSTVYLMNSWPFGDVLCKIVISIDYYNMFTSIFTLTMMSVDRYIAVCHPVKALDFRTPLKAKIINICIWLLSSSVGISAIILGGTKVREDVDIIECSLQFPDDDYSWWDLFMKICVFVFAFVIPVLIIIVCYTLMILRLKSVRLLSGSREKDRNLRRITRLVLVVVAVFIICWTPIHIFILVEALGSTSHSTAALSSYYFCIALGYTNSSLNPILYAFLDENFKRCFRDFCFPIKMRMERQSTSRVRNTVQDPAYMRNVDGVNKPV
In words: κ (KOP) binding (guinea-pig cerebellum).

The target in test [4] is 5-HT2a (Homo sapiens, UniProt P28223). In words: Selectivity binding 5-HT2a.
5-HT2a, sequence (P28223 whole entry, species assumed): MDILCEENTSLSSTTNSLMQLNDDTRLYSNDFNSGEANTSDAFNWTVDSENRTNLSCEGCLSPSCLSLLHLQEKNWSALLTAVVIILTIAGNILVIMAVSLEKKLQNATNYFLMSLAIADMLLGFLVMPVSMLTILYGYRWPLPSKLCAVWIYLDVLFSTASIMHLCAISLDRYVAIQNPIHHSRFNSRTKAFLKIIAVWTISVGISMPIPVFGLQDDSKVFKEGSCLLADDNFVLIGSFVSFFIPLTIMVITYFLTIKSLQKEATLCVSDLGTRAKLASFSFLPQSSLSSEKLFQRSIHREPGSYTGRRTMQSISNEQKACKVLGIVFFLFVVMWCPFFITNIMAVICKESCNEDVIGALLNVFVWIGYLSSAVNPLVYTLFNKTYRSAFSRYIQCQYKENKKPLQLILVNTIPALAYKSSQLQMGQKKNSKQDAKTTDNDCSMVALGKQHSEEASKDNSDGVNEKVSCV
The test system of test [5] is body weight of DIO rats. In words: Effect on body weight, 28 days oral treatment of DIO rats. In kind it is in vivo, male Sprague-Dawley rats. Conditions: for Body weight Mean (g) Day 28: 28 days; for Basal Mean (%) Day 28: body weight % of basal; for Body weight gain Mean: day 28-initial; for Reduction % of vehicle / Reduction gram: versus vehicle at day 28. As to the method: (c) Effect on Body Weight and on Food Intake
The corresponding solution was used as vehicle. The stability of the solutions were checked upon storage for 14 days. Solutions were formulated twice a week and stored in freezer. The solutions were analysed for the actual concentrations and found similar between the two occasions.
Hundred (100) male Sprague-Dawley rats were raised on high fat diet at Scanbur BK AB (Sollentuna, Sweden) which upon their arrival to the Biovitrum animal care facility weighed approximately 700 g (17 weeks old). The rats were conditioned and weighed for approximately three weeks after their arrival. The rats were singly stored in standard cages during constant room conditions (temp 22+/−1° C., humidity 40-60%, 12 h light/dark cycle, lights off at 10 am). The rats received the same high fat diet (45 kcal % fat, 4.7 kcal/g; D12451) as they received at Scanbur. The diets were purchased from Research Diets, Inc., New Jersey, USA, consisted of pellets and were stored under dry and cold conditions.
The high fat fed animals which gained the highest weight were selected. This population weighed 799±60 g. The selected forty-eight (48) rats were randomized and divided into […] treatment groups in order to obtain as homogeneous groups according to body weight as possible. Each treatment group consisted of 12 rats: Group 1—vehicle, Group 2—Example 1-5 mg/kg (11 μmol/kg), Group 3—Example 1-15 mg/kg (33 μmol/kg), Group 4—Example 1-30 mg/kg (66 μmol/kg). Further nine (9) rats were allocated for measurement of compound exposure and pharmacokinetics at each dose group in parallel for the seventh and the twentyninth days. The study was started by baseline measurements for five days in order to accustom the rats to the procedure and to the experimentalists. Test compound was administered orally once a day at 9-10 am in a volume of 2.5 ml/kg i.e.an average of 2 ml per (800 g) rat. Pellets and body were weighed each day in connection with the injections. Water bottles were weighed once a week. The weighings were done with a computer-assisted Mettler Toledo PR 5002 balance. All data were transferred into an Excel template.
The food and water intake, and body weight data are calculated in gram and % of basal and expressed as mean +/−SD and/or +/−SEM.
The data of body weight and food intake was statistically analysed by two-way univariate ANOVA with repeated measurements (treatment x time) followed by one-way ANOVA for comparison between treatment groups at selected time points. Clinical chemistry measurements were analysed by one-way ANOVA followed by Dunnetts t-test for test of significance of treatment groups versus vehicle control. A difference between two groups was considered significant if P<0.05. Statistical evaluation was performed using SPSS for Windows.

5-HT2b, sequence (P41595 whole entry, species assumed): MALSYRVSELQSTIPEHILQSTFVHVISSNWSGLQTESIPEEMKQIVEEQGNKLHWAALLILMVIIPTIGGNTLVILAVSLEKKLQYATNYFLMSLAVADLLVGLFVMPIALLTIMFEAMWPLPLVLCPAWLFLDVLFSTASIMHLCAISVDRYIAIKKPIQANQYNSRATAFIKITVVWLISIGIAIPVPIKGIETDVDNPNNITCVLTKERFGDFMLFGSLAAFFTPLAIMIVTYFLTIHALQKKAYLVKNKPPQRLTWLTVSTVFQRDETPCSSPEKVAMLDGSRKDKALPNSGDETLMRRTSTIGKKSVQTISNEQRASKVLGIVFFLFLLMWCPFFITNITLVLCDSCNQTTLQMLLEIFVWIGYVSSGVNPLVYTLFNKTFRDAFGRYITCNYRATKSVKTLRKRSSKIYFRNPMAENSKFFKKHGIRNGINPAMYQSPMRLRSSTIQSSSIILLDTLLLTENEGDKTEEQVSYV
T1 sequence (P50406 whole entry): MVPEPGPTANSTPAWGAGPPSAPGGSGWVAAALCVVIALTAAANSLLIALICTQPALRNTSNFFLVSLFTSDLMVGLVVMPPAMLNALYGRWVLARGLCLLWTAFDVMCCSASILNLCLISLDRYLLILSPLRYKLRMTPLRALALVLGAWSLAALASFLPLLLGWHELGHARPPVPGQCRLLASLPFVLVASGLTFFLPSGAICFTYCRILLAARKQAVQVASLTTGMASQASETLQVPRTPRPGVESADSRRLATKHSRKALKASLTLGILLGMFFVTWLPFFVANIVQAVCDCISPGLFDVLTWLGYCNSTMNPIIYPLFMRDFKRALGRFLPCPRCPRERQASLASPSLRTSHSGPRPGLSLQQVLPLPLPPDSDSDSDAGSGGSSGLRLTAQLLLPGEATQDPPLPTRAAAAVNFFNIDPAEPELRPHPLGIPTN

What is called Ki is a measure of affinity in units of concentration, obtained from inhibition or displacement. Broadly, the inhibition is the change of the read-out against control, counted positive when it falls. Consider `COc1ccc(C)cc1NS(=O)(=O)c1cc(OC2CCNCC2)c2occc2c1` [Example 1], for which the Ki in test [1] was 0.44 µM; in test [3] it was 0.12 µM; in test [4] (figure in parentheses after the bound, read-out: 5-HT2a Selectivity Binding (Ki), value in parentheses) it was 5.6 µM; in test [4] (read-out: 5-HT2a Selectivity Binding (Ki)), over 1 µM. In addition, the inhibition at 0.05 µM in test [2] was at least 20%. Further, the “Body weight Mean (g) Day 28” value in test [5] (5 mg/kg p.o. once a day) stood at 845 g; in test [5] (15 mg/kg p.o. once a day) it was 834 g; in test [5] (30 mg/kg p.o. once a day), 810 g. In addition, the “Basal Mean (%) Day 28” value in test [5] (5 mg/kg p.o.) was determined as 103.5%; in test [5] (15 mg/kg p.o.) it was 103.7%; in test [5] (30 mg/kg p.o.), 100.6%. In addition, the “Body weight gain Mean” value in test [5] (5 mg/kg p.o.) is on record as 29 g; in test [5] (15 mg/kg p.o.), 30 g; in test [5] (30 mg/kg p.o.), 4 g. Also, the “Reduction % of vehicle” value is recorded as 3.9% in test [5] (5 mg/kg p.o.), 3.7% in test [5] (15 mg/kg p.o.) and 6.9% in test [5] (30 mg/kg p.o.). Besides, the Reduction gram in test [5] (5 mg/kg p.o.) is reported as −31 gram; in test [5] (15 mg/kg p.o.), −30 gram; in test [5] (30 mg/kg p.o.) it was −57 gram. Moreover, in test [5] (5, 15, 30 mg/kg p.o., four weeks, repeated ANOVA P<0.001), the “body weight throughout the whole treatment period” value is “decreased significantly”. In test [5] (third dose of the sentence, printed as 15 mg/kg), the “reduction in body weight” value came to 6.9%.

The values above are taken from patent publication US7582767B2 (Biovitrum AB (publ.), priority 2005, dated 2009).
